# In ChEMBL document CHEMBL1201862, “PubChem BioAssay data set” (2004):
# Active and inactive are the calls of the source.
# What was measured:
# P388/ADR = assay: cells; format: functional; details: Mus musculus
# SN12K1 = assay: cells; format: functional; details: Homo sapiens
# P388 = assay: cells; format: functional; details: Mus musculus
# [1] = target: T1, Ubiquitin-conjugating enzyme E2 N (Homo sapiens, UniProt P61088); format: functional;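 also: Dose-response confirmation in a TR-FRET assay detecting UBC13-driven polyubiquitin chain formation, inhibition measured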
# T1 sequence (P61088 whole entry): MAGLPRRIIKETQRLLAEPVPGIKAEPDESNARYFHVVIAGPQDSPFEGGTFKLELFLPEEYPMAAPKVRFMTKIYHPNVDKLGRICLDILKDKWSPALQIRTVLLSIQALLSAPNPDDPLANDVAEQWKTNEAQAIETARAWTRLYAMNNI
# [2] = target: T2, High affinity choline transporter 1 (Homo sapiens, UniProt Q9GZV3); assay: CHT inhibitors, dose response, cell-based, 5-point CRC, membrane potential dye (AID 504840); format: functional
# T2 sequence (Q9GZV3 whole entry): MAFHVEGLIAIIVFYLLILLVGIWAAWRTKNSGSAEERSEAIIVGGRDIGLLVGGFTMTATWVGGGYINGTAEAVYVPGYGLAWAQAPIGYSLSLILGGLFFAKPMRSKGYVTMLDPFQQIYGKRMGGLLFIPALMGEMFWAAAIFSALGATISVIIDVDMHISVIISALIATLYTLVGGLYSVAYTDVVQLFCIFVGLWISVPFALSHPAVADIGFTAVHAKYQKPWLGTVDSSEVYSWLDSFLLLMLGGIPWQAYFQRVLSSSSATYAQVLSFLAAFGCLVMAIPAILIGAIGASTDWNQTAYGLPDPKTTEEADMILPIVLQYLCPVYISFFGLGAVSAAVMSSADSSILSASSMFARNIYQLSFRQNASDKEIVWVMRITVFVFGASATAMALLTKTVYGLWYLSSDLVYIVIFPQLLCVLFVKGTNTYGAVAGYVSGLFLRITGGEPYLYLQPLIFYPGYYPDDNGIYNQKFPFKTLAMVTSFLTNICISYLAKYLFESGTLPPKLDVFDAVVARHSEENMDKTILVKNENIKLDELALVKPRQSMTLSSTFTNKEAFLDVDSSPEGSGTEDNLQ
# [3] = target: FAD-linked sulfhydryl oxidase ALR (Homo sapiens, UniProt P55789); assay: inhibitors of human ALR sulfhydryl oxidase, dose response, biochemical, H2O2 detection, luminescence, cherry-pick (AID 493248)
# [4] = target: DNA dC->dU-editing enzyme APOBEC-3A (Homo sapiens, UniProt P31941); assay: APOBEC3A DNA deaminase inhibitors, dose response, biochemical (AID 504722); format: functional
# [5] = target: DNA dC->dU-editing enzyme APOBEC-3G (Homo sapiens, UniProt Q9HC16); assay: Dose Response confirmation of small molecule APOBEC3G DNA Deaminase Inhibitors via a fluorescence-based single-stranded DNA deaminase assay. [Related pubchem assays (depositor defined):AID493012, AID493028]; format: functional
# [6] = inhibitors of HIV Env-driven cell fusion, dose response, cherry-pick (AID 652057); format: functional, cell-based
# [7] = ZM109 Env clade C HIV-1 fusion inhibitors, dose response, HeLa effector, CEM target cells, luciferase, cherry-pick (AID 652058); format: functional, cell-based
# [8] = off-target signal loss in HeLa-CEM21 co-culture – HeLa F-luc CTL cells, cherry-picked, counter-screen for HIV-1 Env fusion inhibitor project, dose response (AID 652040); format: functional, cell-based;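 also: potency for signal decrease marking cytotoxic or nonspecific inhibition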
# [9] = inhibitors of clade B AD8 Env fusion, dose response, cell-based, cherry-pick (AID 652062); format: functional;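 also: luciferase signal from cell-cell fusion driven by HIV-1 clade B AD8 Env; potency is for inhibitors of fusion seen as a drop in luminescence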
# [10] = THP-1 cell cytotoxicity, dose response, cytotoxicity control for non-replicating M. tuberculosis project (AID 489025); format: functional
# [11] = Vero E6 cell cytotoxicity, dose response, cytotoxicity control for non-replicating M. tuberculosis project, secondary assay (AID 492998); format: functional, VeroE6; details: Vero C1008
# cells = format: functional
# Genome polyprotein = Genome polyprotein (dengue virus type 2, UniProt P29990); assay: Dengue-2 NS5 methyltransferase inhibitors, primary screen, biochemical, confirmation dose response (AID 588689); format: functional
# [12] = target: T3, Rac GTPase-activating protein 1 (Homo sapiens, UniProt Q9H0H5); assay: MgcRacGAP GTPase-activating activity inhibitors, confirmation, biochemical, ADP Hunter fluorescence, primary and confirmatory (AID 624330); format: functional
# T3 sequence (Q9H0H5 whole entry): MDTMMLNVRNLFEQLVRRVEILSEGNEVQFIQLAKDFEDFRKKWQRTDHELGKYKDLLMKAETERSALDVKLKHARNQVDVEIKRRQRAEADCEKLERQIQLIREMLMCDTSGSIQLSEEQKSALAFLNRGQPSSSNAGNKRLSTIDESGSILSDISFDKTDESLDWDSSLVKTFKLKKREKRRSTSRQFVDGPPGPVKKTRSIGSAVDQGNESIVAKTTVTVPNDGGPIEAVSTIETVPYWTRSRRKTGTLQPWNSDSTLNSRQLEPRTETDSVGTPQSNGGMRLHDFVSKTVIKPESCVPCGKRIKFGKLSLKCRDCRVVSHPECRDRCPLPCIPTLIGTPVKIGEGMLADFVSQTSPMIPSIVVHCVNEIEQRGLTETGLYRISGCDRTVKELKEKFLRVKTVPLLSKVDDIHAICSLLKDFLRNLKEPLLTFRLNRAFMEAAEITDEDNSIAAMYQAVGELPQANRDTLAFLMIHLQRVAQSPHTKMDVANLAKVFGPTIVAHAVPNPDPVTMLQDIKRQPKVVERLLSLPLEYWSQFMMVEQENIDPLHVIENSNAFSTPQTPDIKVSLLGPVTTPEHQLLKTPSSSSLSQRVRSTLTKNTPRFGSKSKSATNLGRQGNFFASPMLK
# [13] = target: T4, Histone-lysine N-methyltransferase NSD2 (Homo sapiens, UniProt O96028); format: biochemical
# T4 sequence (O96028 whole entry): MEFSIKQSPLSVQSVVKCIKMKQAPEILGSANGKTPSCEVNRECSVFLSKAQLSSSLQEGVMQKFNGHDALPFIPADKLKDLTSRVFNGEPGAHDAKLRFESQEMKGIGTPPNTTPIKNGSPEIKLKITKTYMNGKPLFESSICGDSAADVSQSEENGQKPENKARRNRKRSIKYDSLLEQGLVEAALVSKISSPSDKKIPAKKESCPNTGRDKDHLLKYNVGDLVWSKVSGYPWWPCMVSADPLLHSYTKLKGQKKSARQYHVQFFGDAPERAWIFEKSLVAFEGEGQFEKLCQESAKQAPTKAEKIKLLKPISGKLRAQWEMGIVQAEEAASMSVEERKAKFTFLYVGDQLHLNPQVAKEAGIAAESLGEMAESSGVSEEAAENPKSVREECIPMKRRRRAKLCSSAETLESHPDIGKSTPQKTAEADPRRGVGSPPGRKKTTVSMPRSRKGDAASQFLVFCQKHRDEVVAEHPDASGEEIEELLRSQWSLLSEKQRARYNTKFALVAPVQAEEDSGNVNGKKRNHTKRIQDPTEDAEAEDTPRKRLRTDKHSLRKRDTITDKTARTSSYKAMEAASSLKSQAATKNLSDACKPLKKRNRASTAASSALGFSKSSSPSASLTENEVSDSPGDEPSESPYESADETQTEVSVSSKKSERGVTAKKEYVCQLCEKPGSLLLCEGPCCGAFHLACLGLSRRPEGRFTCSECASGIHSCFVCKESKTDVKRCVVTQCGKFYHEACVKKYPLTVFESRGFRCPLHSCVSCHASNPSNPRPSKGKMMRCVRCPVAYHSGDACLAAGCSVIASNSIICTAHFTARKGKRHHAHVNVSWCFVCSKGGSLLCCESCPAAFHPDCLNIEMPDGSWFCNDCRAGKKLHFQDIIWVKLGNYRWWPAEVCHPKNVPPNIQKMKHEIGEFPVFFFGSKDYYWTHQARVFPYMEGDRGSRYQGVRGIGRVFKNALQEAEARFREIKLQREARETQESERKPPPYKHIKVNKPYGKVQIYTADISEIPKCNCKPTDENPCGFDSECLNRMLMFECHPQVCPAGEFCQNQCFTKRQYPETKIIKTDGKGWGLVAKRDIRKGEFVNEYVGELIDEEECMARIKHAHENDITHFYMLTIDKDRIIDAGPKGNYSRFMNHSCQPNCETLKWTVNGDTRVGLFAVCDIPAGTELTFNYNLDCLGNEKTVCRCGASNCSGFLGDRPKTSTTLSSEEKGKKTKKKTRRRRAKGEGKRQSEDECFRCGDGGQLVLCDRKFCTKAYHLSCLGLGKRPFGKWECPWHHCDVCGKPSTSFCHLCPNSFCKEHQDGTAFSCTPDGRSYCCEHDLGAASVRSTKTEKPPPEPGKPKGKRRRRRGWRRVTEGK
# [14] = microbe, parasite or virus in culture; format: functional; details: Mycobacterium tuberculosis
# FAD-linked sulfhydryl oxidase ALR, sequence (P55789 whole entry): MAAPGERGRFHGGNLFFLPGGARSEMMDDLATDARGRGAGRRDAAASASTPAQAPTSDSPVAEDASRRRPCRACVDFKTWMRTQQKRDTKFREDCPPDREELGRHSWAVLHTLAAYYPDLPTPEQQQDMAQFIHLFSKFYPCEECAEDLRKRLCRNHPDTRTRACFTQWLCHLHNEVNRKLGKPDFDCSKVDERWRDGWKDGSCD
# DNA dC->dU-editing enzyme APOBEC-3G, sequence (Q9HC16 whole entry, the tested form may be a part): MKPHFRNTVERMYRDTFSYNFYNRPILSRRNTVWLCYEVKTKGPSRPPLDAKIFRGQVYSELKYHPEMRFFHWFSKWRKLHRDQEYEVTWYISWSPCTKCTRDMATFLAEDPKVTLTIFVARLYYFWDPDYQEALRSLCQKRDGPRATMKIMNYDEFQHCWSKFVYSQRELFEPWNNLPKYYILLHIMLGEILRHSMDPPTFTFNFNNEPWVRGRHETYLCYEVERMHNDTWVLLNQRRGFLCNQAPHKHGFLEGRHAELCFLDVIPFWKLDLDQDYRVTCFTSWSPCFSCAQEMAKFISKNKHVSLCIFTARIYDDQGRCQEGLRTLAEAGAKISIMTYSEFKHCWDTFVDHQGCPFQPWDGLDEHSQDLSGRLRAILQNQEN
# DNA dC->dU-editing enzyme APOBEC-3A, sequence (P31941 whole entry): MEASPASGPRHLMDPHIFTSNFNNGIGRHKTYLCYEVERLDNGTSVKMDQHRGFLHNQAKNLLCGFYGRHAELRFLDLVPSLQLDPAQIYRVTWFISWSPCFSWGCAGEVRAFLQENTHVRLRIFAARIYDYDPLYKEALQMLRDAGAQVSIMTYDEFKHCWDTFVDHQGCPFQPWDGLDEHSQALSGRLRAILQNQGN
# Genome polyprotein, sequence (P29990 2492-3391 limits assumed): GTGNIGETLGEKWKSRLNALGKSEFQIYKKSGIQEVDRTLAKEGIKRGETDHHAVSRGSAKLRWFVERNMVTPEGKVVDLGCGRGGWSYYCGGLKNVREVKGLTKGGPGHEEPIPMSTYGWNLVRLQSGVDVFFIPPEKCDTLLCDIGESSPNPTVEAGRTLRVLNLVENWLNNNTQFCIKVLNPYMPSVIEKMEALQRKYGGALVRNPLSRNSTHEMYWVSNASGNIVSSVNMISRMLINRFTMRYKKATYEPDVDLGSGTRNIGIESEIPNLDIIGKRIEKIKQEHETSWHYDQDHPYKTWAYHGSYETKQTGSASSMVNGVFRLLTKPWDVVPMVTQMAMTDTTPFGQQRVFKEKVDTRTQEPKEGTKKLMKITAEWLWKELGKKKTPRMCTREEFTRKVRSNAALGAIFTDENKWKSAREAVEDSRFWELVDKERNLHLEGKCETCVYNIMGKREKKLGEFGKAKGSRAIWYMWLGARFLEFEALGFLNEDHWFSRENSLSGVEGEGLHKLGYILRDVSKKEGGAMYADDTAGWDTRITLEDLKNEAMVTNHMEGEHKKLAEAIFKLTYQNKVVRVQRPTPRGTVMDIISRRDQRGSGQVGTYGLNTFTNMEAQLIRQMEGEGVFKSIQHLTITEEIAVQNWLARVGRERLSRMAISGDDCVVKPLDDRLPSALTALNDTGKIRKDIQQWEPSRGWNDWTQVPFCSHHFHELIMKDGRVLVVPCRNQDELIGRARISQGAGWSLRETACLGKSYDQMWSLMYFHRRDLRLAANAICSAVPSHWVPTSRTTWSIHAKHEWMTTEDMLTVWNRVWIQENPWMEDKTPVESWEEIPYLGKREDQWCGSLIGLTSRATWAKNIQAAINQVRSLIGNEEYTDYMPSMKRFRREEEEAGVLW
smiles,measurement,setting,value
O=NN(CCCl)C(=O)NC1CCC(=O)NC1=O (configuration not stated),GI50,P388/ADR,23.4 µM (inactive)
same,GI50,SN12K1,107 µM (inactive)
same,GI50,P388,17.8 µM (inactive)
O=C(C(=O)N1CCOCC1)c1cn(Cc2ccccc2Cl)c2ccccc12,IC50,[1],> 20 µM (inactive)
COc1ccc(-c2csc(Cc3nnc4n3CCCCC4)n2)cc1,IC50,[2],9.12 µM (active)
Nc1ccc(-c2nc3cc(N)ccc3s2)cc1,AC50,[3],1.43 µM (active)
Clc1nnc(N2CCCCC2)c2ccccc12,AC50,[3],17.1 µM (active)
O=C(NCC1CCCCC1)C1(CC2CC(c3ccc(Cl)cc3)=NO2)CCNCC1 (configuration not stated),IC50,[1],> 20 µM (inactive)
COc1ccccc1CCNC(=O)c1ccc(OC)c(OC2CCN(C(C)C)CC2)c1,IC50,[2],13.5 µM (active)
CC(=O)NCCCc1c[nH]c2ccc(Cl)cc12,AC50,[3],13.5 µM (active)
CCn1c(CSc2nc3ccccc3[nH]2)n[nH]c1=S,IC50,[4],> 100 µM (inactive)
same,IC50,[5],5.44 µM (active)
CN(C)S(=O)(=O)c1ccc(N2CCCC2)c(C(=O)NCCc2ccc(F)cc2)c1,AC50,[6],5.95 µM (active)
same,AC50,[7],5.76 µM (active)
same,AC50,[8],9.35 µM (active)
same,AC50,[9],6.5 µM (active)
CN(C)CCCNc1nc2sc3c(c2c(=O)n1CCc1ccccc1)CCCCC3,CC50,[10],19.5 µM (active)
same,IC50,[1],> 20 µM (inactive)
same,CC50,[11],14.4 µM (active)
same,IC50,cells,23.3 µM (active)
CCN(CC)S(=O)(=O)c1ccc(NC2c3ccccc3C(=O)N2Cc2ccc3c(c2)OCO3)cc1 (configuration not stated),AC50,[6],1.33 µM (active)
same,AC50,[7],7.39 µM (active)
same,AC50,[8],3.71 µM (active)
CCOc1ccc(/C=C2\SC(=S)N(NS(=O)(=O)c3ccccc3)C2=O)cc1OC,IC50,[2],5.37 µM (active)
same,IC50,Genome polyprotein,71.2 µM (active)
Cc1sc2ncnc(N3CCC(C(=O)Nc4cc(S(C)(=O)=O)ccc4Cl)CC3)c2c1C,AC50,[6],8.97 µM (active)
same,AC50,[7],3.3 µM (active)
same,AC50,[8],30.5 µM (active)
same,AC50,[9],12.3 µM (active)
COC1C(C)OC(OC2CC(C)(O)Cc3cc4c(c(O)c32)C(=O)c2c(O)cc3c(c2C4=O)OC2OC3(C)C(O)C(N(C)C)C2O)C(OC)C1(C)OC (configuration not stated),GI50,P388/ADR,0.5 µM (active)
same,GI50,SN12K1,0.0168 µM (active)
same,GI50,P388,0.0228 µM (active)
COc1ccc(C)cc1NCc1ccc(OC)c(C)c1OC,IC50,[12],59.5 µM (active)
same,AC50,[13],> 20 µM (inactive)
Cc1ccnc(NCc2c(O)ccc3ccccc23)c1,IC50,[1],> 20 µM (inactive)
CCCCCn1c(=O)c2ccccc2n2c(CCl)nnc12,CC50,[14],11.7 µM (active)
same,CC50,[10],19.2 µM (active)
same,CC50,[11],> 20 µM (active)
same,IC50,cells,0.67 µM (active)
COc1cccc(/C=C2\SC(N3CCCC(C)C3)=NC2=O)c1OC (configuration not stated),AC50,[3],5.2 µM (active)
CC1(C)CC(=O)c2cnn(-c3nc4ccccc4[nH]3)c2C1,AC50,[3],14.8 µM (active)
COc1ccc(S(=O)(=O)N2CCCCC2)cc1NC(=O)Cc1ccsc1,AC50,[13],17.1 µM (active)
C[C@H]1CC[C@H](NC(=O)N(CCCl)N=O)CC1,GI50,P388/ADR,9.73 µM (inactive)
same,GI50,SN12K1,26 µM (inactive)
same,GI50,P388,9.53 µM (inactive)
Cc1nnc(S)n1/N=C/c1ccc(-c2ccccc2[N+](=O)[O-])o1,IC50,[4],> 100 µM (inactive)
same,IC50,[5],4.2 µM (active)
COc1cc[n+](C)cc1,GI50,P388/ADR,> 100 µM (inactive)
same,GI50,SN12K1,> 100 µM (inactive)
same,GI50,P388,> 100 µM (inactive)
COc1cc(-c2ccc(/N=N/c3c(S(=O)(=O)O)cc4cc(S(=O)(=O)O)cc(N)c4c3O)c(OC)c2)ccc1/N=N/c1c(S(=O)(=O)O)cc2cc(S(=O)(=O)O)cc(N)c2c1O,GI50,SN12K1,> 100 µM (inactive)
same,GI50,P388,> 100 µM (inactive)
COC(=O)C1=C(C)N(Cc2ccc(Cl)cc2)C(=S)NC1c1ccc(OC)cc1 (configuration not stated),AC50,[6],3.25 µM (active)
same,AC50,[7],5.23 µM (active)
same,AC50,[8],5.7 µM (active)
same,AC50,[9],12.6 µM (active)
CCC[S+]([O-])c1nc(COC(=O)NC)c(COC(=O)NC)n1C (configuration not stated),GI50,P388/ADR,> 100 µM (inactive)
same,GI50,SN12K1,> 100 µM (inactive)
same,GI50,P388,> 100 µM (inactive)
S=P(N1CC1)(N1CC1)N1CC1 [THIOTEPA],GI50,P388/ADR,7.41 µM (inactive)
same,GI50,SN12K1,> 89.1 µM (inactive)
same,GI50,P388,6.93 µM (inactive)
